Data published in US6352976B1, “Selective inhibitors of MMP-12” (Aventis Pharmaceuticals Inc., priority 1998, dated 2002).
Where a name gives a salt, the structure may show the parent alone.

Experiments:
MMP-2 = biological target: T1, MMP-2 (Homo sapiens, UniProt P08253); experiment: Determination of inhibition constant (Ki) for MMP-2, fluorogenic substrate; format: biochemical; details: pH 7.6
T1 construct: made in house; host or cells: Pichia pastoris (strains KM71 / SMD1168, clone 24S; vector pHIL-D2)
T1 sequence (P08253 110-660): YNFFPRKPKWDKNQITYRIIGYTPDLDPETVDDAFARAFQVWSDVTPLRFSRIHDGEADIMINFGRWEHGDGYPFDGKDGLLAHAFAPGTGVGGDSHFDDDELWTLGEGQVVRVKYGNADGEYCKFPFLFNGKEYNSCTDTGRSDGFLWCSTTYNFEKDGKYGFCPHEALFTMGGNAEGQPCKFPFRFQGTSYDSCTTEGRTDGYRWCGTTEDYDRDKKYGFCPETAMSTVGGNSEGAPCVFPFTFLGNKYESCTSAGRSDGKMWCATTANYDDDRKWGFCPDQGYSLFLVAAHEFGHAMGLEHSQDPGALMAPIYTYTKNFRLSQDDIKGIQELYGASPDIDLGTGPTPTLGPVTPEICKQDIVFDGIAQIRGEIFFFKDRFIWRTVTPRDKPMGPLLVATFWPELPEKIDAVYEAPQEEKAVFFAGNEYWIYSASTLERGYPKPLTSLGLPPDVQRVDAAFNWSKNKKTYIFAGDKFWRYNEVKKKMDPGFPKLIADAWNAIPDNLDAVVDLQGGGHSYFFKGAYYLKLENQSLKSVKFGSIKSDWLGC
Excerpt: Recombinant MMP-2 was purified from the fermentation broth of yeast Pichia pastoris that carries the integrated MMP-2 gene into its chromosome. In brief, the full-length cDNA for MMP-2 was obtained by reverse transcription of RNA from human melanoma A375M cell line by the reverse transcriptase polymerase chain reaction (RT-PCR) using sequence specific oligonucleotides. The nucleotide sequence was confirmed by Taq cycle sequencing. The cDNA was ligated into the Pichia pastoris expression vector pHIL-D2 in such a way that the expression of pro-MMP-2 is under the control of the methanol inducible alcohol oxidase promoter. The expression construct was digested with either SalI or NsiI and used to transform the Pichia pastoris strains KM71 and SMD1168. A large-scale culture of a selected clone designated 24S was performed in a high cell density fermentor and the recombinant MMP-2 was purified from the culture supernatant by gelatin-sepharose 4B (Pharmacia). The enzyme is sufficiently pure at this stage for routine measurement of inhibition. If desired, however, the enzyme may be further purified by AcA 44 gel filtration (Spectra).
The active MMP-2 was obtained by activation of proMMP-2 at 37° C. for 1 h with 4-aminophenylmercuric acetate which was then removed by a Sephadex G-50 spin column. The enzyme is assayed using a fluorogenic substrate, Mca-Pro-Leu-Gly-Leu-Dpa-Ala-Arg-NH2, at 37° C. in 2.0 mL of assay buffer containing 50 mM Tris, pH 7.6, 0.2 M sodium chloride, 50 mM calcium chloride, 0.02% Brij-35, and 50 μM β-mercaptoethanol. The increase in fluorescence is monitored (λex 328 nm, λem 393 nm). Substrate and inhibitor stock solutions are made in DMF. The enzyme is added at the last to start the reaction. For routine measurement of a Ki value for a reversible, competitive inhibitor, the initial rates in the presence of at least four inhibitor concentrations (two inhibitor concentrations above Ki and two below Ki) are measured using [S]=1 μM (<<Km) and [MMP-2]=0.4 nM. Under these conditions, the measured Ki, app is close to true Ki.

[1] = biological target: T2, MMP-12 (macrophage metalloelastase) (Homo sapiens, UniProt P39900); experiment: Determination of the inhibition constant (Ki) for MMP-12, fluorogenic substrate; format: biochemical; details: pH 7.6
T2 construct: made in house
Experimental: MMP-12 (EC3.4.24.65) was cloned, expressed and purified according to Shapiro, S. D. et al., J Biol. Chem. 268, 23824-23829 (1993). […] Aliquots of MMP-12 were stored at −70° C.
The potency of inhibitors of MMP-12 was measured using either quartz cuvettes or microtiter plates. The activity of MMP-12 was measured using a fluorogenic substrate, Mca-Pro-Leu-Gly-Leu-Dpa-Ala-Arg-NH2 SEQ ID NO1, Knight, C. G. et al., FEBS Lett. 296,263-266 (1992), at 25° C. in an assay buffer containing 50 mM Tris, pH 7.6, 0.2 M sodium chloride, 50 mM calcium chloride, and 0.02% Brij-35. The increase in fluorescence due to cleavage of Gly-Leu peptide bond by MMP-12 was monitored with a Perkin-Elmer LS50B Fluorimeter (λex 328 nm, λem 393 nm, excitation slit 2.5, emission slit 10) for the cuvette assay and with a Molecular Devices Fmax fluorescence plate reader (λex 320 nm, λem 405 nm) for the microtiter plate assay. Substrate and inhibitor stock solutions were made in N,N-dimethylformamide (DMF) and 0.1% HCl-DMF, respectively.
Ki values were determined using the cuvette method by preparing a series of intermediate inhibitors solutions in 0.1% HCl-DMF and mixing the inhibitor with substrate (final concentration 2 μM) in a quartz cuvette containing 2 ml of assay buffer. MMP-12 was added to start the reaction at a concentration of 2 nM and progress curves were generated. For routine measurement of a Ki value for a reversible competitive inhibitor, the initial rates in the presence of at least four inhibitor concentrations (two concentrations above and two concentrations below the Ki) were measured [S]=2 μM (<<Km) and [MMP-12]=2 nM. Under these conditions, the measured Ki,app is close to the true Ki.
Ki values were determined using the microtiter plate method in a manner similar to that described for the cuvette method with some modifications. Four different inhibitor concentrations (50 μl in assay buffer) of each compound were added to separate wells of a microtiter plate and substrate was added (100 μl) to get a final concentration of […]. MMP-12 was added to a final concentration of 2 nM (50 μl) to start the reaction. Cleavage of substrate was recorded every 30 seconds for 30 minutes and progress curves were generated.
The Ki for a competitive inhibitor was calculated using: V0/Vi=(1+[I]/Ki,app) and Ki=Ki,app/(1+[S]/Km), where V0 is the initial rate in the absence of inhibitor, Vi is the initial rate in the presence of inhibitor at the concentration of [I], [S] is the substrate concentration, and Km is the Michaelis constant. If slow binding is observed (i.e. if the approach to the binding equilibrium is slow), the final steady-state rate rather than the initial rate is taken as Vi.

[2] = Table 1, Mca-Pro-Leu-Gly-Leu-Dpa-Ala-Arg-NH2, 37° C.
[3] = Table 1, Mca-Pro-Leu-Gly-Leu-Dpa-Ala-Arg-NH2, 25° C.

T2 sequence (P39900 106-263 limits assumed): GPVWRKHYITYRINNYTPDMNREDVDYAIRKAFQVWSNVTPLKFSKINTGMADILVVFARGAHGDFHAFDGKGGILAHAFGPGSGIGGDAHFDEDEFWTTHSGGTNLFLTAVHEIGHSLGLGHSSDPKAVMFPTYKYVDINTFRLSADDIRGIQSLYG

Ki (MMP-2; Table 2 (comparative), method of Example B, 37° C.) [nM] | Ki ([1]; Table 2 (comparative), method of Example D, 25° C.) [nM] | Ki (MMP-2; [2]) [nM] | Ki [1, 3] [nM] | Structure (SMILES)
3.3 | 0.6 |  |  | CNC(=O)[C@H](Cc1ccccc1)NC(=O)[C@H](CCc1ccccc1)NC(=O)C(S)C(C)C (stereo partly drawn) [Example 7, (S)-2-Mercapto-3-methylbutyroyl-(L)-homo-phenylalanyl-(L)-phenylalanine N-methyl amide, reference compound]
 |  | 1740 | 151 | CC(C)[C@H](S)C(=O)N[C@@H](CCCCN)C(=O)N[C@@H](Cc1ccccc1)C(=O)O [Example 5, (S)-2-Mercapto-3-methylbutyroyl-(L)-lysyl-(L)-phenylalanine trifluoroacetic acid salt]
 |  | 798 | 14 | CSCC[C@H](NC(=O)[C@@H](S)C(C)C)C(=O)N[C@@H](Cc1ccccc1)C(=O)O [Example 4, (S)-2-Mercapto-3-methylbutyroyl-(L)-methionyl-(L)-phenylalanine]
 |  | 784 | 14 | CC(C)C[C@H](NC(=O)[C@@H](S)C(C)C)C(=O)N[C@@H](Cc1ccccc1)C(=O)O [Example 3, (S)-2-Mercapto-3-methylbutyroyl-(L)-leucyl-(L)-phenylalanine]
